# Experimental data as given in patent publication US20150094474A1, “AGRICULTURAL CHEMICALS” (Redx Pharma Ltd., priority 2012, published 2015).
# Legend:
# [1] = tested on: peas; assay: Herbicidal bioassay, peas (% necrosis); format: in vivo
# Outline: (§1)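 Lolium perenne, barley, peas and Chinese cabbage at 2-4 true leaf stage sprayed simultaneously with a Potter tower, compounds in DMSO at six concentrations (0.05% to 0.0001%). Phytotoxicity scored as % necrosis per EPPO PP1/135 at set intervals; five replicates per treatment and species; DMSO and water controls.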
# [2] = tested on: barley; assay: Herbicidal bioassay, barley (% necrosis); format: in vivo
# Outline: as §1
smiles,measurement,setting,value
"CC(Oc1ccc(Oc2ccc(C(F)(F)F)cn2)cc1)C(=O)O (stereo not drawn) [Compound 25, Fluazifop, reference compound]",Sum of % necrosis in Peas,"[1]; Dose 0.000001, Day 0",C (less than 50% necrosis)
same,Sum of % necrosis in Peas,"[1]; Dose 0.000001, Day 1",C (less than 50% necrosis)
same,Sum of % necrosis in Peas,"[1]; Dose 0.000001, Day 3",C (less than 50% necrosis)
same,Sum of % necrosis in Peas,"[1]; Dose 0.000001, Day 7",C (less than 50% necrosis)
same,Sum of % necrosis in Peas,"[1]; Dose 0.000001, Day 10",C (less than 50% necrosis)
same,Sum of % necrosis in Peas,"[1]; Dose 0.000001, Day 14",C (less than 50% necrosis)
same,Sum of % necrosis in Peas,"[1]; Dose 0.000001, Day 21",C (less than 50% necrosis)
same,Sum of % necrosis in Peas,"[1]; Dose 0.000005, Day 0",C (less than 50% necrosis)
same,Sum of % necrosis in Peas,"[1]; Dose 0.000005, Day 1",C (less than 50% necrosis)
same,Sum of % necrosis in Peas,"[1]; Dose 0.000005, Day 3",C (less than 50% necrosis)
same,Sum of % necrosis in Peas,"[1]; Dose 0.000005, Day 7",C (less than 50% necrosis)
same,Sum of % necrosis in Peas,"[1]; Dose 0.000005, Day 10",C (less than 50% necrosis)
same,Sum of % necrosis in Peas,"[1]; Dose 0.000005, Day 14",C (less than 50% necrosis)
same,Sum of % necrosis in Peas,"[1]; Dose 0.000005, Day 21",C (less than 50% necrosis)
same,Sum of % necrosis in Peas,"[1]; Dose 0.00001, Day 0",C (less than 50% necrosis)
same,Sum of % necrosis in Peas,"[1]; Dose 0.00001, Day 1",C (less than 50% necrosis)
same,Sum of % necrosis in Peas,"[1]; Dose 0.00001, Day 3",C (less than 50% necrosis)
same,Sum of % necrosis in Peas,"[1]; Dose 0.00001, Day 7",C (less than 50% necrosis)
same,Sum of % necrosis in Peas,"[1]; Dose 0.00001, Day 10",B (50%-80% necrosis)
same,Sum of % necrosis in Peas,"[1]; Dose 0.00001, Day 14",B (50%-80% necrosis)
same,Sum of % necrosis in Peas,"[1]; Dose 0.00001, Day 21",A (over 80% necrosis)
same,Sum of % necrosis in Peas,"[1]; Dose 0.00005, Day 0",C (less than 50% necrosis)
same,Sum of % necrosis in Peas,"[1]; Dose 0.00005, Day 1",C (less than 50% necrosis)
same,Sum of % necrosis in Peas,"[1]; Dose 0.00005, Day 3",C (less than 50% necrosis)
same,Sum of % necrosis in Peas,"[1]; Dose 0.00005, Day 7",C (less than 50% necrosis)
same,Sum of % necrosis in Peas,"[1]; Dose 0.00005, Day 10",C (less than 50% necrosis)
same,Sum of % necrosis in Peas,"[1]; Dose 0.00005, Day 14",C (less than 50% necrosis)
same,Sum of % necrosis in Peas,"[1]; Dose 0.00005, Day 21",A (over 80% necrosis)
same,Sum of % necrosis in Peas,"[1]; Dose 0.0001, Day 0",C (less than 50% necrosis)
same,Sum of % necrosis in Peas,"[1]; Dose 0.0001, Day 1",C (less than 50% necrosis)
same,Sum of % necrosis in Peas,"[1]; Dose 0.0001, Day 3",C (less than 50% necrosis)
same,Sum of % necrosis in Peas,"[1]; Dose 0.0001, Day 7",C (less than 50% necrosis)
same,Sum of % necrosis in Peas,"[1]; Dose 0.0001, Day 10",C (less than 50% necrosis)
same,Sum of % necrosis in Peas,"[1]; Dose 0.0001, Day 14",C (less than 50% necrosis)
same,Sum of % necrosis in Peas,"[1]; Dose 0.0001, Day 21",A (over 80% necrosis)
same,Sum of % necrosis in Peas,"[1]; Dose 0.0005, Day 0",C (less than 50% necrosis)
same,Sum of % necrosis in Peas,"[1]; Dose 0.0005, Day 1",C (less than 50% necrosis)
same,Sum of % necrosis in Peas,"[1]; Dose 0.0005, Day 3",C (less than 50% necrosis)
same,Sum of % necrosis in Peas,"[1]; Dose 0.0005, Day 7",C (less than 50% necrosis)
same,Sum of % necrosis in Peas,"[1]; Dose 0.0005, Day 10",C (less than 50% necrosis)
same,Sum of % necrosis in Peas,"[1]; Dose 0.0005, Day 14",C (less than 50% necrosis)
same,Sum of % necrosis in Peas,"[1]; Dose 0.0005, Day 21",A (over 80% necrosis)
same,Sum of % necrosis in barley,"[2]; Dose 0.000001, Day 0",C (less than 50% necrosis)
same,Sum of % necrosis in barley,"[2]; Dose 0.000001, Day 1",C (less than 50% necrosis)
same,Sum of % necrosis in barley,"[2]; Dose 0.000001, Day 3",C (less than 50% necrosis)
same,Sum of % necrosis in barley,"[2]; Dose 0.000001, Day 7",C (less than 50% necrosis)
same,Sum of % necrosis in barley,"[2]; Dose 0.000001, Day 10",C (less than 50% necrosis)
same,Sum of % necrosis in barley,"[2]; Dose 0.000001, Day 14",C (less than 50% necrosis)
same,Sum of % necrosis in barley,"[2]; Dose 0.000001, Day 21",C (less than 50% necrosis)
same,Sum of % necrosis in barley,"[2]; Dose 0.000005, Day 0",C (less than 50% necrosis)
same,Sum of % necrosis in barley,"[2]; Dose 0.000005, Day 1",C (less than 50% necrosis)
same,Sum of % necrosis in barley,"[2]; Dose 0.000005, Day 3",C (less than 50% necrosis)
same,Sum of % necrosis in barley,"[2]; Dose 0.000005, Day 7",C (less than 50% necrosis)
same,Sum of % necrosis in barley,"[2]; Dose 0.000005, Day 10",C (less than 50% necrosis)
same,Sum of % necrosis in barley,"[2]; Dose 0.000005, Day 14",C (less than 50% necrosis)
same,Sum of % necrosis in barley,"[2]; Dose 0.000005, Day 21",C (less than 50% necrosis)
same,Sum of % necrosis in barley,"[2]; Dose 0.00001, Day 0",C (less than 50% necrosis)
same,Sum of % necrosis in barley,"[2]; Dose 0.00001, Day 1",C (less than 50% necrosis)
same,Sum of % necrosis in barley,"[2]; Dose 0.00001, Day 3",C (less than 50% necrosis)
same,Sum of % necrosis in barley,"[2]; Dose 0.00001, Day 7",C (less than 50% necrosis)
same,Sum of % necrosis in barley,"[2]; Dose 0.00001, Day 10",C (less than 50% necrosis)
same,Sum of % necrosis in barley,"[2]; Dose 0.00001, Day 14",C (less than 50% necrosis)
same,Sum of % necrosis in barley,"[2]; Dose 0.00001, Day 21",C (less than 50% necrosis)
same,Sum of % necrosis in barley,"[2]; Dose 0.00005, Day 0",C (less than 50% necrosis)
same,Sum of % necrosis in barley,"[2]; Dose 0.00005, Day 1",C (less than 50% necrosis)
same,Sum of % necrosis in barley,"[2]; Dose 0.00005, Day 3",C (less than 50% necrosis)
same,Sum of % necrosis in barley,"[2]; Dose 0.00005, Day 7",C (less than 50% necrosis)
same,Sum of % necrosis in barley,"[2]; Dose 0.00005, Day 10",C (less than 50% necrosis)
same,Sum of % necrosis in barley,"[2]; Dose 0.00005, Day 14",C (less than 50% necrosis)
same,Sum of % necrosis in barley,"[2]; Dose 0.00005, Day 21",A (over 80% necrosis)
same,Sum of % necrosis in barley,"[2]; Dose 0.0001, Day 0",C (less than 50% necrosis)
same,Sum of % necrosis in barley,"[2]; Dose 0.0001, Day 1",C (less than 50% necrosis)
same,Sum of % necrosis in barley,"[2]; Dose 0.0001, Day 3",C (less than 50% necrosis)
same,Sum of % necrosis in barley,"[2]; Dose 0.0001, Day 7",C (less than 50% necrosis)
same,Sum of % necrosis in barley,"[2]; Dose 0.0001, Day 10",C (less than 50% necrosis)
same,Sum of % necrosis in barley,"[2]; Dose 0.0001, Day 14",C (less than 50% necrosis)
same,Sum of % necrosis in barley,"[2]; Dose 0.0001, Day 21",A (over 80% necrosis)
same,Sum of % necrosis in barley,"[2]; Dose 0.0005, Day 0",C (less than 50% necrosis)
same,Sum of % necrosis in barley,"[2]; Dose 0.0005, Day 1",C (less than 50% necrosis)
same,Sum of % necrosis in barley,"[2]; Dose 0.0005, Day 3",C (less than 50% necrosis)
same,Sum of % necrosis in barley,"[2]; Dose 0.0005, Day 7",C (less than 50% necrosis)
same,Sum of % necrosis in barley,"[2]; Dose 0.0005, Day 10",C (less than 50% necrosis)
same,Sum of % necrosis in barley,"[2]; Dose 0.0005, Day 14",B (50%-80% necrosis)
same,Sum of % necrosis in barley,"[2]; Dose 0.0005, Day 21",A (over 80% necrosis)
